For data set [1], the species on record is Rattus norvegicus. The experiment in a line: Immunosuppressant activity in rat using mixed leukocyte response (MLR). The class given is functional.
The species entered for data set [2] is Homo sapiens. The data set is described as follows: Immunosuppressant activity using human mixed leukocyte response (HMLR). The class given is functional.
Data set [3] is filed under the species Homo sapiens. The experiment in a line: Compound was tested for immunosuppressant activity using human mixed leukocyte response(HMLR) at a concentration of 10 uM; Not active. In kind it is functional.
Data set [4] is filed under the species Rattus norvegicus. The data set is described as follows: Compound was tested for immunosuppressant activity in rat using mixed leukocyte response(MLR) at a concentration of 10 uM; Not active. In kind it is functional.
The species named for data set [5] is Homo sapiens. The experiment in a line: Compound was tested for immunosuppressant activity using human mixed leukocyte response(HMLR) assay. In kind it is functional.
Data set [6] can be described thus: Half-life value was evaluated. The class given is ADME.
Data set [7] in a line: Aqueous solubility at a pH of 7.3. In kind it is physicochemical. The settings on record: pH 7.3, read-out: S.
The nature of data set [8]: C max value was evaluated. The class given is ADME, organism-based. The note with it: in vivo.
The species named for data set [9] is Homo sapiens. The experiment in a line: Compound was tested for immunosuppressant activity using human mixed leukocyte response(HMLR); Not active, < 20 % inhibition at 10 uM. The class given is functional.
The species named for data set [10] is Rattus norvegicus. The data set is described as follows: Compound was tested for immunosuppressant activity in rat using mixed leukocyte response(MLR); Not active, < 20 % inhibition at 10 uM. The class given is functional.
The species named for data set [11] is Rattus norvegicus. The data set is described as follows: Compound was tested for immunosuppressant activity in rat using mixed leukocyte response (MLR). In kind it is functional.
Data set [12] is filed under the species Homo sapiens. The experiment in a line: Compound was tested for immunosuppressant activity using human mixed leukocyte response (HMLR). In kind it is functional.
Data set [13] is filed under the species Homo sapiens. The experiment in a line: Compound was tested for immunosuppressant activity using human mixed leukocyte response(HMLR) at 10 uM; Not active. In kind it is functional.

The source of these data is ChEMBL document CHEMBL1130610, “Synthesis and immunosuppressant activity of pyrazole carboxamides” (Bioorg Med Chem Lett, 1998).

pIC50: −log10 of the molar value. ≈ marks a conversion by molar mass, not a printed value. Calls of active or inactive are those of the source. No cut-off for these calls is given here.

With `Cc1c(C(=O)Nc2cccc(C(F)(F)F)c2)cnn1-c1ccc(F)cc1`, the pIC50 was 5.96 in the data set listed under Rattus norvegicus [1] and 5.77 in the data set filed under Homo sapiens [2].
As to `Cc1c(C(=O)Nc2ccc(C(F)(F)F)cc2)cnn1-c1ccc(F)c(Cl)c1`, the pIC50 in the data set filed under Rattus norvegicus [1] was 6.68; in the data set filed under Homo sapiens [2] it was 5.89.
With `Cc1oncc1C(=O)Nc1ccc(C(F)(F)F)cc1` [LEFLUNOMIDE], the pIC50 in the data set listed under Rattus norvegicus [1] is 6.00; in the data set listed under Homo sapiens [2] it was 5.27.
With `Cc1n[nH]cc1C(=O)Nc1ccc(C(F)(F)F)cc1`, the inhibition at 10 µM in the data set filed under Homo sapiens [3] and in the data set filed under Rattus norvegicus [4] was under 20% each time.
On to `Cc1c(C(=O)Nc2ccc(F)cc2)cnn1-c1ccc(F)cc1`, for which the pIC50 is 5.62 in the data set filed under Homo sapiens [5] and 6.21 in the data set filed under Rattus norvegicus [1].
For the molecule `Cc1c(C(=O)Nc2ccc(C(F)(F)F)cc2)cnn1Cc1ccc(F)cc1`, the pIC50 in the data set filed under Rattus norvegicus [1] was 5.62; in the data set listed under Homo sapiens [2] it was 5.44.
`Cc1ccc(-n2ncc(C(=O)Nc3ccc(C(F)(F)F)cc3)c2C)cc1`: the pIC50 in the data set listed under Rattus norvegicus [1] was 6.00; in the data set filed under Homo sapiens [2], 6.39.
In the same order, the values of `CCCCC(CC)NC(=O)c1cnn(-c2ccc(F)cc2)c1C` (stereo not given) are 6.96 and 6.24.
With `Cc1c(C(=O)N(CC(=O)O)c2ccc(C(F)(F)F)cc2)cnn1-c1ccc(F)cc1`, the pIC50 in the data set listed under Rattus norvegicus [1] is 6.51; in the data set filed under Homo sapiens [2], 5.49. Besides, the half-life in data set [6] is 6 h. Moreover, the solubility in [7] stood at 1530 µg/mL (≈ 3640 µM). In data set [8], this molecule returned a Cmax of 4450 ng/mL.
Take `Cc1cc(C)cc(-n2ncc(C(=O)Nc3ccc(C(F)(F)F)cc3)c2C)c1`: the pIC50 was 6.39 in the data set filed under Rattus norvegicus [1] and 5.66 in the data set listed under Homo sapiens [2].
As for `Cc1c(C(=O)Nc2ccc(C(F)(F)F)cc2)cnn1-c1cccc(F)c1`, the pIC50 is 6.66 in the data set filed under Rattus norvegicus [1] and 5.51 in the data set filed under Homo sapiens [2].
In the same order, the values of `Cc1c(C(=O)Nc2ccc(C(F)(F)F)cc2)cnn1CCc1ccc(F)cc1` are 5.77 and 5.27.
In the same order, the values of `COc1cccc(-n2ncc(C(=O)Nc3ccc(C(F)(F)F)cc3)c2C)c1` are 5.60 and 5.60.
As for `COc1ccc(-n2ncc(C(=O)Nc3ccc(C(F)(F)F)cc3)c2C)cc1`, the pIC50 in the data set listed under Rattus norvegicus [1] is 6.00; in the data set filed under Homo sapiens [2], 6.47.
On to `Cc1ccc(NC(=O)c2cnn(-c3ccc(F)cc3)c2C)cc1`, for which the negative logarithm of the IC50 (pIC50) in the data set listed under Rattus norvegicus [1] is 6.70; in the data set listed under Homo sapiens [2], 6.27.
In the same order, the values of `COc1cccc(NC(=O)c2cnn(-c3ccc(F)cc3)c2C)c1` are 5.44 and 5.43.
With `C/C(Nc1ccc(F)cc1)=C(/C#N)C(=O)Nc1ccc(C(F)(F)F)cc1`, the inhibition entry in the data set filed under Homo sapiens [9] and in the data set filed under Rattus norvegicus [10] was “inactive” throughout.
`Cc1ccccc1NC(=O)c1cnn(-c2ccc(F)cc2)c1C`: the pIC50 in the data set filed under Rattus norvegicus [1] is 6.96; in the data set filed under Homo sapiens [2], 5.96.
In the same order, the values of `Cc1c(C(=O)Nc2ccc(C(F)(F)F)cc2)cnn1-c1ccc([N+](=O)[O-])cc1` are 5.64 and 5.24.
In turn, `Cc1c(C(=O)Nc2ccc(C(F)(F)F)cc2)cnn1-c1ccc(F)cc1` showed a half-life in data set [6] of 13.7 h. Moreover, the solubility in [7] is 0.4 µg/mL (≈ 1.1 µM). The pIC50 was 6.57 in the data set listed under Rattus norvegicus [11] and 6.07 in the data set listed under Homo sapiens [12]. For the same molecule, the highest level in [8] (Cmax) was 460 ng/mL.
On to `Cc1c(C(=O)Nc2ccc(C(F)(F)F)cc2)cnn1-c1ccc(Cl)cc1`, for which the negative logarithm of the IC50 (pIC50) in the data set filed under Rattus norvegicus [1] was 5.13; in the data set listed under Homo sapiens [2], 6.39.
Regarding `Cc1c(-c2ccc(-c3ccccc3F)cc2)nc2ccc(F)cc2c1C(=O)O` [BREQUINAR], the values for the negative logarithm of the IC50 (pIC50) in the data set listed under Rattus norvegicus [1] and in the data set filed under Homo sapiens [2] were 5.80 and 5.41, respectively.
Regarding `Cc1c(C(=O)Nc2ccccc2F)cnn1-c1ccc(F)cc1`, the negative logarithm of the IC50 (pIC50) in the data set filed under Rattus norvegicus [1] is 5.29; in the data set filed under Homo sapiens [2] it was 5.40.
On to `Cc1c(C(=O)Nc2cccc(F)c2)cnn1-c1ccc(F)cc1`, for which the pIC50 is 6.10 in the data set filed under Rattus norvegicus [1] and 5.52 in the data set listed under Homo sapiens [2].
`Cc1c(C(=O)NCCc2ccc(F)cc2)cnn1-c1ccc(F)cc1` gave a pIC50 in the data set filed under Rattus norvegicus [1] of 6.52. The molecule also displayed an inhibition at 10 µM in the data set filed under Homo sapiens [3] of under 20%.
For `Cc1c(C(=O)Nc2ccc(C(F)(F)F)cc2)cnn1-c1ccccc1C(F)(F)F`, the pIC50 was 6.59 in the data set listed under Rattus norvegicus [1] and 5.59 in the data set filed under Homo sapiens [2].
In the same order, the values of `Cc1cccc(NC(=O)c2cnn(-c3ccc(F)cc3)c2C)c1` are 6.05 and 5.24.
Regarding `Cc1c(C(=O)Nc2ccc(C(F)(F)F)cc2)cnn1-c1cccc(Cl)c1Cl`, the pIC50 in the data set listed under Rattus norvegicus [1] is 6.62; in the data set filed under Homo sapiens [2], 5.80.
The molecule `Cc1c(C(=O)NCc2ccc(F)cc2)cnn1-c1ccc(F)cc1` had a pIC50 in the data set filed under Rattus norvegicus [1] of 6.48. The same molecule had an inhibition at 10 µM in the data set filed under Homo sapiens [13] of under 20%.
Turning to `Cc1c(C(=O)Nc2ccc(C(F)(F)F)cc2)cnn1-c1ccccc1`, the figures for the pIC50 in the data set filed under Rattus norvegicus [1] and in the data set listed under Homo sapiens [2] were 6.19 and 5.64, respectively.
As for `Cc1ccccc1-n1ncc(C(=O)Nc2ccc(C(F)(F)F)cc2)c1C`, the negative logarithm of the IC50 (pIC50) in the data set filed under Rattus norvegicus [1] was 6.82; in the data set listed under Homo sapiens [2], 5.82.
As for `C/C(Nc1ccccc1)=C(/C#N)C(=O)Nc1ccc(C(F)(F)F)cc1`, the inhibition result in the data set filed under Homo sapiens [9] and in the data set listed under Rattus norvegicus [10] was “inactive” throughout.
On to `Cc1cccc(-n2ncc(C(=O)Nc3ccc(C(F)(F)F)cc3)c2C)c1`, for which the pIC50 in the data set filed under Rattus norvegicus [1] is 6.05; in the data set filed under Homo sapiens [2], 5.60.
In the same order, the values of `Cc1c(C(=O)Nc2ccc(C(F)(F)F)cc2)cnn1-c1ccccc1F` are 6.96 and 5.96.
As to `Cc1c(C(=O)Nc2ccc(OC(F)(F)F)cc2)cnn1-c1ccc(F)cc1`, the pIC50 was 5.59 in the data set listed under Rattus norvegicus [1] and 5.47 in the data set filed under Homo sapiens [2].
As to `C/C(Nc1ccc([N+](=O)[O-])cc1)=C(/C#N)C(=O)Nc1ccc(C(F)(F)F)cc1`, the inhibition result in the data set listed under Homo sapiens [9] and in the data set filed under Rattus norvegicus [10] was “inactive” in each case.
On to `Cc1c(C(=O)Nc2ccc(C(F)(F)F)cc2)cnn1Cc1ccccc1`, for which the pIC50 in the data set listed under Rattus norvegicus [1] was 5.57; in the data set listed under Homo sapiens [2], 5.43.
